These results are taken from patent publication US20160166487A1, “TOPICAL COMPOSITIONS FOR TREATMENT OF EXCESSIVE SWEATING AND METHODS OF USE THEREOF” (GLAXOSMITHKLINE INTELLECTUAL PROPERTY DEVELOPMENT LIMITED, priority 2013, published 2016).

Series [1] is described as follows: MALDI imaging of distribution in skin layers. In kind it is in vitro ADME, human. As to conditions: twenty-four hours after single finite topical dose. From the text:
Matrix-assisted laser desorption/ionization (MALDI) has emerged as a powerful and diverse technology for analyzing the spatial distribution of endogenous and exogenous compounds directly from a tissue section. [See Seeley E H, Caprioli R M. MALDI imaging mass spectrometry of human tissue: method challenges and clinical perspectives. Trends Biotechnol. 29(3), 136-143 (2011); and Svatos A. Mass spectrometric imaging of small molecules. Trends Biotechnol. 28(8), 425-434 (2010)]. […] Anal Bioanal Chem. (2013); 405(4):1159-70]. MALDI imaging in human skin tissue sections: focus on various matrices and enzymes.

Series [2] is described as follows: Clinical study, single topical [14C] umeclidinium dose to axilla or palm of healthy male subjects. In kind it is in vivo, human. The method, then: Up to four cohorts were to be enrolled (Cohort A: unoccluded axilla; Cohort B: occluded axilla; Cohort C: unoccluded palm; Cohort D: occluded palm). Six subjects were to be dosed in each cohort and complete the study procedures.
On the day of dosing, subjects will receive the study drug applied to the axilla or palm. Each subject will only receive a single dose of study drug which will be applied to the test site and remain on the application site for 8 hours. Serial blood samples will be collected throughout treatment. An interim analysis using simulations will be conducted after each cohort to determine the likelihood of exceeding the safety cover for Cmax or AUC and the likelihood of obtaining quantifiable concentrations sufficient to determine the half-life in the subsequent cohorts.

A short description of series [3]: Population pharmacokinetic model of IV and occluded axilla plasma data. In kind it is in vivo, human. From the text: Of the drug that was available systemically, 9.70% (66.7%) was absorbed through a zero order process.
Series [4] can be described thus: Irritation potential of topical solution. As to conditions: solution comprising 2.2% w/w umeclidinium bromide.
The conditions of series [5]: 0.5 mg (500 mcg) inhaled once daily for 10 days, thorough QT study; cited from earlier work.

`OC(c1ccccc1)(c1ccccc1)C12CC[N+](CCOCc3ccccc3)(CC1)CC2` [umeclidinium, 4-[hydroxy(diphenyl)methyl]-1-{2-[(phenylmethyl)oxy]ethyl}-1-azoniabicyclo[2.2.2]octane]: the “qualitative distribution in the skin layers” value in series [1] was “penetrated to the deeper sections of the dermis and accumulated in the area where the sweat glands are present”. Besides, the “percent dose recovered from the skin surface, mean” value in series [2] (Cohort A, unoccluded axilla, end of 8 hour application, range 77.7-84.1%) came to 80.6%; in series [2] (Cohort B, occluded axilla, range 69.2%-81.7%), 75.4%; in series [2] (Cohort D, occluded palm, range 45.6%-59.9%), 52.5%. In series [2] (Cohort A, unoccluded axilla, range: 12 h-30 h), the “median time to maximum plasma concentration” value was found to be 13 h. Moreover, the “median time to maximum concentration” value in series [2] (Cohort B, occluded axilla, range: 2 h-24 h) was 13 h. For the same molecule, the plasma concentrations result in series [2] (Cohort D, occluded palm) was “no quantifiable plasma concentrations”. Further, in series [3] (administration to occluded axilla, RSE 55.3%), the “estimated absolute plasma bioavailability, mean (RSE %)” value is 0.19%. Moreover, in series [3] (occluded axilla, RSE 66.7%), the “share of systemically available drug absorbed through a zero order process, mean (RSE %)” value worked out at 9.70%. Besides, the irritation potential result in series [4] was “low irritation potential”. Further, the tolerability entry in series [5] is “well tolerated”.
